In ChEMBL document CHEMBL1255299, “Killing of Neisseria gonorrhoeae, Streptococcus agalactiae (group B streptococcus), Haemophilus ducreyi, and vaginal Lactobacillus by 3-O-octyl-sn-glycerol” (2008):
The source made the active and inactive calls.

Columns and labels:
[1] = tested on: Neisseria gonorrhoeae; test: Microbicidal activity against Neisseria gonorrhoeae ATCC 49226 after 30 mins; format: functional; settings: ATCC 49226, 0.5 h
[2] = tested on: Neisseria gonorrhoeae; test: Microbicidal activity against Neisseria gonorrhoeae ATCC 19424 after 30 mins; format: functional; settings: ATCC 19424, 0.5 h
[3] = tested on: Lactobacillus jensenii; test: Microbicidal activity against Lactobacillus jensenii after 30 mins; format: functional; settings: 0.5 h
[4] = tested on: Lactobacillus iners; test: Microbicidal activity against Lactobacillus iners after 30 mins; format: functional
[5] = tested on: Lactobacillus crispatus; test: Microbicidal activity against Lactobacillus crispatus after 30 mins; format: functional; settings: 0.5 h
[6] = tested on: Neisseria gonorrhoeae; test: Antimicrobial activity against Neisseria gonorrhoeae ATCC 49226 at 4.4 mM in presence of 0.05 mM human serum albumin; format: functional, organism-based
[7] = tested on: Lactobacillus crispatus; test: Antimicrobial activity against Lactobacillus crispatus ATCC 33197 at 4.4 mM in presence of 0.7 mM human serum albumin; format: functional
[8] = tested on: Pseudomonas aeruginosa; test: Antimicrobial activity against Pseudomonas aeruginosa at 4.4 mM in presence of 0.2 mM human serum albumin; format: functional, organism-based
[9] = tested on: Streptococcus agalactiae; test: Microbicidal activity against Streptococcus agalactiae serotype III after 30 mins; format: functional; settings: 0.5 h
[10] = tested on: Lactobacillus crispatus; test: Antimicrobial activity against Lactobacillus crispatus ATCC 20225 at 4.4 mM in presence of 0.2 mM human serum albumin; format: functional
[11] = tested on: Lactobacillus crispatus; test: Antimicrobial activity against Lactobacillus crispatus ATCC 20225 at 4.4 mM in presence of 0.5 mM human serum albumin; format: functional
[12] = tested on: Lactobacillus crispatus; test: Antimicrobial activity against Lactobacillus crispatus ATCC 33197 at 4.4 mM in presence of 0.2 mM human serum albumin; format: functional
[13] = tested on: Neisseria gonorrhoeae; test: Antimicrobial activity against Neisseria gonorrhoeae ATCC 49226 at 4.4 mM in presence of 0.4 mM human serum albumin; format: functional, organism-based
[14] = tested on: Pseudomonas aeruginosa; test: Antimicrobial activity against Pseudomonas aeruginosa at 4.4 mM in presence of 0.5 mM human serum albumin; format: functional, organism-based
[15] = tested on: Lactobacillus jensenii; test: Antimicrobial activity against Lactobacillus jensenii ATCC 25258 at 4.4 mM in presence of 0.05 mM human serum albumin; format: functional
[16] = tested on: Lactobacillus crispatus; test: Antimicrobial activity against Lactobacillus crispatus ATCC 33197 at 4.4 mM in presence of 0.6 mM human serum albumin; format: functional
[17] = tested on: Pseudomonas aeruginosa; test: Antimicrobial activity against Pseudomonas aeruginosa at 4.4 mM in presence of 0.1 mM delipidated human serum albumin; format: functional, organism-based
[18] = tested on: Pseudomonas aeruginosa; test: Antimicrobial activity against Pseudomonas aeruginosa at 4.4 mM in presence of 0.4 mM delipidated human serum albumin; format: functional, organism-based
[19] = tested on: Lactobacillus crispatus; test: Antimicrobial activity against Lactobacillus crispatus ATCC 20225 at 4.4 mM in presence of 0.1 mM human serum albumin; format: functional
[20] = tested on: Lactobacillus jensenii; test: Antimicrobial activity against Lactobacillus jensenii ATCC 25258 at 4.4 mM in presence of 0.6 mM human serum albumin; format: functional
[21] = tested on: Streptococcus agalactiae; test: Microbicidal activity against Streptococcus agalactiae serotype IV after 30 mins; format: functional; settings: 0.5 h
[22] = tested on: Streptococcus agalactiae; test: Microbicidal activity against Streptococcus agalactiae serotype 1B after 30 mins; format: functional; settings: 0.5 h
[23] = tested on: Lactobacillus jensenii; test: Antimicrobial activity against Lactobacillus jensenii ATCC 25258 at 4.4 mM in presence of 0.5 mM human serum albumin; format: functional
[24] = tested on: Neisseria gonorrhoeae; test: Antimicrobial activity against Neisseria gonorrhoeae ATCC 49226 at 4.4 mM in presence of 0.3 mM human serum albumin; format: functional, organism-based
[25] = tested on: Pseudomonas aeruginosa; test: Antimicrobial activity against Pseudomonas aeruginosa at 4.4 mM in presence of 0.5 mM delipidated human serum albumin; format: functional, organism-based
[26] = tested on: Neisseria gonorrhoeae; test: Antimicrobial activity against Neisseria gonorrhoeae ATCC 49226 at 4.4 mM in presence of 0.5 mM human serum albumin; format: functional, organism-based
[27] = tested on: Lactobacillus crispatus; test: Antimicrobial activity against Lactobacillus crispatus ATCC 20225 at 4.4 mM in presence of 0.7 mM human serum albumin; format: functional
[28] = tested on: Lactobacillus jensenii; test: Antimicrobial activity against Lactobacillus jensenii ATCC 25258 at 4.4 mM in presence of 0.3 mM human serum albumin; format: functional
[29] = tested on: Lactobacillus crispatus; test: Antimicrobial activity against Lactobacillus crispatus ATCC 33197 at 4.4 mM in presence of 0.05 mM human serum albumin; format: functional
[30] = tested on: Neisseria gonorrhoeae; test: Antimicrobial activity against Neisseria gonorrhoeae ATCC 49226 at 4.4 mM in presence of 0.1 mM human serum albumin; format: functional, organism-based
[31] = tested on: Lactobacillus jensenii; test: Antimicrobial activity against Lactobacillus jensenii ATCC 25258 at 4.4 mM in presence of 0.2 mM human serum albumin; format: functional
[32] = tested on: Lactobacillus crispatus; test: Antimicrobial activity against Lactobacillus crispatus ATCC 33197 at 4.4 mM in presence of 0.5 mM human serum albumin; format: functional
[33] = tested on: Lactobacillus jensenii; test: Antimicrobial activity against Lactobacillus jensenii ATCC 25258 at 4.4 mM in presence of 0.7 mM human serum albumin; format: functional
[34] = tested on: Lactobacillus crispatus; test: Antimicrobial activity against Lactobacillus crispatus ATCC 20225 at 4.4 mM in presence of 0.3 mM human serum albumin; format: functional
[35] = tested on: Streptococcus agalactiae; test: Microbicidal activity against Streptococcus agalactiae serotype V after 30 mins; format: functional; settings: 0.5 h
[36] = tested on: Streptococcus agalactiae; test: Microbicidal activity against Streptococcus agalactiae serotype 1A after 30 mins; format: functional; settings: serotype IA, 0.5 h
[37] = tested on: Neisseria gonorrhoeae; test: Antimicrobial activity against Neisseria gonorrhoeae ATCC 49226 at 4.4 mM in presence of 0.7 mM human serum albumin; format: functional, organism-based
[38] = tested on: Lactobacillus jensenii; test: Antimicrobial activity against Lactobacillus jensenii ATCC 25258 at 4.4 mM in presence of 0.1 mM human serum albumin; format: functional
[39] = tested on: [Haemophilus] ducreyi; test: Microbicidal activity against Haemophilus ducreyi after 30 mins; format: functional; settings: 0.5 h
[40] = tested on: Lactobacillus crispatus; test: Antimicrobial activity against Lactobacillus crispatus ATCC 33197 at 4.4 mM in presence of 0.3 mM human serum albumin; format: functional
[41] = tested on: Lactobacillus crispatus; test: Antimicrobial activity against Lactobacillus crispatus ATCC 33197 at 4.4 mM in presence of 0.1 mM human serum albumin; format: functional
[42] = tested on: Pseudomonas aeruginosa; test: Antimicrobial activity against Pseudomonas aeruginosa at 4.4 mM in presence of 0.2 mM delipidated human serum albumin; format: functional, organism-based
[43] = tested on: Lactobacillus crispatus; test: Antimicrobial activity against Lactobacillus crispatus ATCC 20225 at 4.4 mM in presence of 0.6 mM human serum albumin; format: functional
[44] = tested on: Pseudomonas aeruginosa; test: Antimicrobial activity against Pseudomonas aeruginosa at 4.4 mM in presence of 0.6 mM delipidated human serum albumin; format: functional, organism-based
[45] = tested on: Pseudomonas aeruginosa; test: Antimicrobial activity against Pseudomonas aeruginosa at 4.4 mM in presence of 0.6 mM human serum albumin; format: functional, organism-based
[46] = tested on: Pseudomonas aeruginosa; test: Antimicrobial activity against Pseudomonas aeruginosa at 4.4 mM in presence of 0.1 mM human serum albumin; format: functional, organism-based
[47] = tested on: Pseudomonas aeruginosa; test: Antimicrobial activity against Pseudomonas aeruginosa at 4.4 mM in presence of 0.3 mM delipidated human serum albumin; format: functional, organism-based
[48] = tested on: Pseudomonas aeruginosa; test: Antimicrobial activity against Pseudomonas aeruginosa at 4.4 mM in presence of 0.4 mM human serum albumin; format: functional, organism-based
[49] = tested on: Lactobacillus vaginalis; test: Microbicidal activity against Lactobacillus vaginalis after 30 mins; format: functional
[50] = tested on: Lactobacillus crispatus; test: Antimicrobial activity against Lactobacillus crispatus ATCC 20225 at 4.4 mM in presence of 0.4 mM human serum albumin; format: functional
[51] = tested on: Lactobacillus jensenii; test: Antimicrobial activity against Lactobacillus jensenii ATCC 25258 at 4.4 mM in presence of 0.4 mM human serum albumin; format: functional
[52] = tested on: Neisseria gonorrhoeae; test: Antimicrobial activity against Neisseria gonorrhoeae ATCC 49226 at 4.4 mM in presence of 0.6 mM human serum albumin; format: functional, organism-based
[53] = tested on: Streptococcus agalactiae; test: Microbicidal activity against Streptococcus agalactiae serotype II after 30 mins; format: functional; settings: 0.5 h
[54] = tested on: Lactobacillus crispatus; test: Antimicrobial activity against Lactobacillus crispatus ATCC 20225 at 4.4 mM in presence of 0.05 mM human serum albumin; format: functional
[55] = tested on: Lactobacillus crispatus; test: Antimicrobial activity against Lactobacillus crispatus ATCC 33197 at 4.4 mM in presence of 0.4 mM human serum albumin; format: functional
[56] = tested on: Pseudomonas aeruginosa; test: Antimicrobial activity against Pseudomonas aeruginosa at 4.4 mM in presence of 0.3 mM human serum albumin; format: functional, organism-based
[57] = tested on: Neisseria gonorrhoeae; test: Antimicrobial activity against Neisseria gonorrhoeae ATCC 49226 at 4.4 mM in presence of 0.2 mM human serum albumin; format: functional, organism-based

CCCCCCCCOC[C@@H](O)CO
5 mM: MCC [5]
2.5 mM: MCC [1] | MCC [2]
4 mM: MCC [4]
3 mM: MCC [3]

CCCCCCCCOC[C@H](O)CO
5 mM: MCC [9] | MCC [21] | MCC [22] | MCC [35] | MCC [36] | MCC [3] | MCC [4] | MCC [53] | MCC [5]
1.25 mM: MCC [39]
> 10 mM: MCC [49]
inactive: Activity [7] | Activity [11] | Activity [14] | Activity [16] | Activity [18] | Activity [20] | Activity [23] | Activity [25] | Activity [27] | Activity [32] | Activity [33] | Activity [34] | Activity [37] | Activity [40] | Activity [42] | Activity [43] | Activity [44] | Activity [45] | Activity [47] | Activity [50] | Activity [51] | Activity [55]
active: Activity [6] | Activity [8] | Activity [10] | Activity [12] | Activity [13] | Activity [15] | Activity [17] | Activity [19] | Activity [24] | Activity [26] | Activity [28] | Activity [29] | Activity [30] | Activity [31] | Activity [38] | Activity [41] | Activity [46] | Activity [48] | Activity [52] | Activity [54] | Activity [56] | Activity [57]
2.5 mM: MCC [1] | MCC [2]
